Laboratory results reported in patent US20260266848A1, “COMPOSITIONS AND METHODS FOR DIAGNOSING AND TREATING DYSTONIA” (Duke University, priority 2023, published 2026).

Tested on: WT MEF EVs
Assay: Quantitative LC-MS/MS proteomics of EVs from ISRIB-treated WT MEF cultures
Type: cell-based, mouse
Parameters: key to ISRIB and DYT Parallel Direction / ISRIB and DYT Parallel Direction, Ctdsp1 / ISRIB and DYT Parallel Direction, Pcdh19 / ISRIB and DYT Parallel Direction, Tspan7 / ISRIB and DYT Parallel Direction, Myo1e / ISRIB and DYT Parallel Direction, Plpp3 / ISRIB and DYT Parallel Direction, Sh3bp4 / ISRIB and DYT Parallel Direction, Dnajc7 / ISRIB and DYT Parallel Direction, Drg1 / ISRIB and DYT Parallel Direction, Maea: YES = protein abundance effect similar to DYT/WT

For `O=C(COc1ccc(Cl)cc1)NC1CCC(NC(=O)COc2ccc(Cl)cc2)CC1` (stereo not shown) [ISRIB, reference compound], the “genotype-disrupted proteins (n=363) reproduced by ISRIB” value (50 nM, 24 h, p<0.05) was 7%, the “EV proteins disrupted by ISRIB treatment of WT cells” value (50 nM, 24 h, p<0.05, of 1974 proteins) was 5% and the “WT + ISRIB/WT Cohen's d, Brd4” value (EV protein Brd4 (Q9ESU6)) was 0.37. The “WT + ISRIB/WT Cohen's d, Cdk11b” value (EV protein Cdk11b (P24788)) was 4.28, the “WT + ISRIB/WT Cohen's d, Cfdp1” value (EV protein Cfdp1 (O88271)) was 8.58 and the “WT + ISRIB/WT Cohen's d, Cstf1” value (EV protein Cstf1 (Q99LC2)) was 1.34. For the same molecule, the “WT + ISRIB/WT Cohen's d, Ctdsp1” value (EV protein Ctdsp1 (P58466)) was −10.61, the “ISRIB and DYT Parallel Direction, Ctdsp1” value (EV protein Ctdsp1 (P58466), WT + ISRIB vs WT) was “YES” and the “WT + ISRIB/WT Cohen's d, Dcaf8” value (EV protein Dcaf8 (Q8N7N5)) was 0.84. For the same molecule, the “WT + ISRIB/WT Cohen's d, Dnajc7” value (EV protein Dnajc7 (Q9QYI3)) was −2.37, the “ISRIB and DYT Parallel Direction, Dnajc7” value (EV protein Dnajc7 (Q9QYI3), WT + ISRIB vs WT) was “YES” and the “WT + ISRIB/WT Cohen's d, Drg1” value (EV protein Drg1 (P32233)) was −1.58. For the same molecule, the “ISRIB and DYT Parallel Direction, Drg1” value (EV protein Drg1 (P32233), WT + ISRIB vs WT) was “YES”, the “WT + ISRIB/WT Cohen's d, Edil3” value (EV protein Edil3 (O35474)) was 3.24 and the “WT + ISRIB/WT Cohen's d, Grwd1” value (EV protein Grwd1 (Q810D6)) was 4.92. The “WT + ISRIB/WT Cohen's d, Heatr3” value (EV protein Heatr3 (Q8BQM4)) was 1.40, the “WT + ISRIB/WT Cohen's d, Hmga2” value (EV protein Hmga2 (P52927)) was 0.21 and the “WT + ISRIB/WT Cohen's d, Kntc1” value (EV protein Kntc1 (Q8C3Y4)) was 0.31. The “WT + ISRIB/WT Cohen's d, Lpar6” value (EV protein Lpar6 (Q8BMC0)) was −1.25, the “WT + ISRIB/WT Cohen's d, Lsm4” value (EV protein Lsm4 (Q9QXA5)) was 0.61 and the “WT + ISRIB/WT Cohen's d, Maea” value (EV protein Maea (Q4VC33)) was −2.82. The “ISRIB and DYT Parallel Direction, Maea” value (EV protein Maea (Q4VC33), WT + ISRIB vs WT) was “YES”, the “WT + ISRIB/WT Cohen's d, Myo1e” value (EV protein Myo1e (E9Q634)) was −1.56 and the “ISRIB and DYT Parallel Direction, Myo1e” value (EV protein Myo1e (E9Q634), WT + ISRIB vs WT) was “YES”. The “WT + ISRIB/WT Cohen's d, Naa50” value (EV protein Naa50 (Q6PGB6)) was 1.03, the “WT + ISRIB/WT Cohen's d, Ndrg1” value (EV protein Ndrg1 (Q62433)) was 1.14 and the “WT + ISRIB/WT Cohen's d, P3h4” value (EV protein P3h4 (Q8K2B0)) was 1.07. The “WT + ISRIB/WT Cohen's d, Pacsin3” value (EV protein Pacsin3 (Q99JB8)) was −2.60, the “WT + ISRIB/WT Cohen's d, Pcdh19” value (EV protein Pcdh19 (Q80TF3)) was −2.26 and the “ISRIB and DYT Parallel Direction, Pcdh19” value (EV protein Pcdh19 (Q80TF3), WT + ISRIB vs WT) was “YES”. For the same molecule, the “WT + ISRIB/WT Cohen's d, Plpp3” value (EV protein Plpp3 (Q99JY8)) was 4.49, the “ISRIB and DYT Parallel Direction, Plpp3” value (EV protein Plpp3 (Q99JY8), WT + ISRIB vs WT) was “YES” and the “WT + ISRIB/WT Cohen's d, Rbm17” value (EV protein Rbm17 (Q8JZX4)) was 0.36. For the same molecule, the “WT + ISRIB/WT Cohen's d, Sbno1” value (EV protein Sbno1 (Q689Z5)) was 0.31, the “WT + ISRIB/WT Cohen's d, Sec61b” value (EV protein Sec61b (Q9CQS8)) was 3.71 and the “WT + ISRIB/WT Cohen's d, Sh3bp4” value (EV protein Sh3bp4 (Q921I6)) was −0.29. For the same molecule, the “ISRIB and DYT Parallel Direction, Sh3bp4” value (EV protein Sh3bp4 (Q921I6), WT + ISRIB vs WT) was “YES”, the “WT + ISRIB/WT Cohen's d, Srrm2” value (EV protein Srrm2 (Q8BTI8)) was 0.17 and the “WT + ISRIB/WT Cohen's d, Sumo1” value (EV protein Sumo1 (P63166)) was 5.82. For the same molecule, the “WT + ISRIB/WT Cohen's d, Tes” value (EV protein Tes (P47226)) was 1.50, the “WT + ISRIB/WT Cohen's d, Timp3” value (EV protein Timp3 (P39876)) was −3.42 and the “WT + ISRIB/WT Cohen's d, Tspan7” value (EV protein Tspan7 (Q62283)) was −0.21. The “ISRIB and DYT Parallel Direction, Tspan7” value (EV protein Tspan7 (Q62283), WT + ISRIB vs WT) was “YES”, the “WT + ISRIB/WT Cohen's d, Unc119b” value (EV protein Unc119b (Q8C4B4)) was 0.17 and the “proteins reduced in both mouse and human EVs whose abundance is modulated toward DYT1-like in WT cells (and toward correction by salubrinal in DYT1 cells)” value (ISRIB) was 4 of the 7. For the same molecule, the “Acaa1a (ACAA1) EV abundance Cohen's d” value (WT+ISRIB/WT, 50 nM, 24 h) was −0.8751, the “Acaa1a (ACAA1) EV abundance Log2_FC” value (WT+ISRIB/WT, 50 nM, 24 h) was −0.6305 and the “Ano6 (ANO6) EV abundance Cohen's d” value (WT+ISRIB/WT, 50 nM, 24 h) was 0.8352. The “Ano6 (ANO6) EV abundance Log2_FC” value (WT+ISRIB/WT, 50 nM, 24 h) was 0.2496, the “Ap1b1 (AP1B1) EV abundance Cohen's d” value (WT+ISRIB/WT, 50 nM, 24 h) was −0.2382 and the “Ap1b1 (AP1B1) EV abundance Log2_FC” value (WT+ISRIB/WT, 50 nM, 24 h) was −0.1813. The “Arl8b (ARL8B) EV abundance Cohen's d” value (WT+ISRIB/WT, 50 nM, 24 h) was −0.8778, the “Arl8b (ARL8B) EV abundance Log2_FC” value (WT+ISRIB/WT, 50 nM, 24 h) was −0.2989 and the “Bzw2 (BZW2) EV abundance Cohen's d” value (WT+ISRIB/WT, 50 nM, 24 h) was −0.9186. The “Bzw2 (BZW2) EV abundance Log2_FC” value (WT+ISRIB/WT, 50 nM, 24 h) was 0.7265, the “Cryab (CRYAB) EV abundance Cohen's d” value (WT+ISRIB/WT, 50 nM, 24 h) was −0.1165 and the “Cryab (CRYAB) EV abundance Log2_FC” value (WT+ISRIB/WT, 50 nM, 24 h) was 0.1177. For the same molecule, the “DIst (DLST) EV abundance Cohen's d” value (WT+ISRIB/WT, 50 nM, 24 h) was 0.6821, the “DIst (DLST) EV abundance Log2_FC” value (WT+ISRIB/WT, 50 nM, 24 h) was −1.897 and the “Ehd4 (EHD4) EV abundance Cohen's d” value (WT+ISRIB/WT, 50 nM, 24 h) was −1.159. The “Ehd4 (EHD4) EV abundance Log2_FC” value (WT+ISRIB/WT, 50 nM, 24 h) was −0.09267, the “Flna (FLNA) EV abundance Cohen's d” value (WT+ISRIB/WT, 50 nM, 24 h) was −0.09039 and the “Flna (FLNA) EV abundance Log2_FC” value (WT+ISRIB/WT, 50 nM, 24 h) was −0.2341. For the same molecule, the “Fscn1 (FSCN1) EV abundance Cohen's d” value (WT+ISRIB/WT, 50 nM, 24 h) was −0.9728, the “Fscn1 (FSCN1) EV abundance Log2_FC” value (WT+ISRIB/WT, 50 nM, 24 h) was −0.2944 and the “Gart (GART) EV abundance Cohen's d” value (WT+ISRIB/WT, 50 nM, 24 h) was −0.1196. For the same molecule, the “Gart (GART) EV abundance Log2_FC” value (WT+ISRIB/WT, 50 nM, 24 h) was −0.2546, the “Hist1h1b (H1-5) EV abundance Cohen's d” value (WT+ISRIB/WT, 50 nM, 24 h) was −0.4556 and the “Hist1h1b (H1-5) EV abundance Log2_FC” value (WT+ISRIB/WT, 50 nM, 24 h) was −0.08676. The “Hnrnpc (HNRNPC) EV abundance Cohen's d” value (WT+ISRIB/WT, 50 nM, 24 h) was 1.199.
